Species on record: Rattus norvegicus
Experiment: Open TG-GATES - Regimen: Single
Assay type: toxicity, organism-based, Sprague-Dawley
Parameters: regimen Single, gender Male, age 6 weeks
Conditions: in vivo, po, 300 mg/kg, route gavage, dose level Middle; for APTT / Bas / Eos / Fbg / Hb / Ht / Lym / MCH / MCHC / MCV / Mono / Neu / PT / Plat / RBC / Ret / WBC: tissue Blood; for KIDNEY_L / KIDNEY_R / KIDNEY_TOTAL: tissue Kidney; for LIVER: tissue Liver; for A/G / ALP / ALT / AST / BUN / CRE / Ca / Cl / DBIL / GLC / IP / K / LDH / Na / PL / RALB / TBIL / TC / TG / TP / gamma-GTP: tissue Plasma

`O=C(OC[C@H]1O[C@@H](OC(=O)c2cc(O)c(O)c(OC(=O)c3cc(O)c(O)c(O)c3)c2)[C@H](OC(=O)c2cc(O)c(O)c(OC(=O)c3cc(O)c(O)c(O)c3)c2)[C@@H](OC(=O)c2cc(O)c(O)c(OC(=O)c3cc(O)c(O)c(O)c3)c2)[C@@H]1OC(=O)c1cc(O)c(O)c(OC(=O)c2cc(O)c(O)c(O)c2)c1)c1cc(O)c(O)c(OC(=O)c2cc(O)c(O)c(O)c2)c1` [TANNIC ACID] showed a TERMINAL_BW (3 h) of 187.9 g, an APTT (3 h) of 16.5 s and a Bas (3 h) of 0%. The Eos (3 h) was 1%, the Fbg (3 h) was 212 mg/dL and the Hb (3 h) was 12.7 g/dL. It also gave a Ht (3 h) of 37.9%, a Lym (3 h) of 78.6% and an MCH (3 h) of 21.9 pg. For the same compound, the MCHC (3 h) was 33.4%, the MCV (3 h) was 65.5 fL and the Mono (3 h) was 7.6%. The Neu (3 h) was 13.4%, the PT (3 h) was 11.6 s and the Plat (3 h) was 101.9 x10_4/uL. It also gave an RBC (3 h) of 579.2 x10_4/ul, a Ret (3 h) of 9.9% and a WBC (3 h) of 113.5 x10_2/uL. For the same compound, the KIDNEY_L (3 h) was 0.9 g, the KIDNEY_R (3 h) was 0.9 g and the KIDNEY_TOTAL (3 h) was 1.8 g. It also gave an LIVER (3 h) of 8.5 g, an A/G (3 h) of 2.2 and an ALP (3 h) of 1029.8 IU/L. The ALT (3 h) was 37.6 IU/L, the AST (3 h) was 68.6 IU/L and the BUN (3 h) was 13.6 mg/dL. It also gave a CRE (3 h) of 0.5 mg/dL, a Ca (3 h) of 10.7 mg/dL and a Cl (3 h) of 105 meq/L. It also gave a DBIL (3 h) of 0.02 mg/dL, a GLC (3 h) of 198 mg/dL and an IP (3 h) of 10.6 mg/dL. It also gave a K (3 h) of 4.7 meq/L, an LDH (3 h) of 85.8 IU/L and a Na (3 h) of 139.6 meq/L. The PL (3 h) was 148.4 mg/dL, the RALB (3 h) was 3.7 g/dL and the TBIL (3 h) was 0.5 mg/dL. It also gave a TC (3 h) of 81.6 mg/dL, a TG (3 h) of 42.4 mg/dL and a TP (3 h) of 5.3 g/dL. For the same compound, the gamma-GTP (3 h) was 1.2 IU/L, the TERMINAL_BW (6 h) was 184.2 g and the APTT (6 h) was 16.5 s. For the same compound, the Bas (6 h) was 0%, the Eos (6 h) was 1% and the Fbg (6 h) was 214.4 mg/dL. The Hb (6 h) was 13 g/dL, the Ht (6 h) was 39.1% and the Lym (6 h) was 75.4%. It also gave an MCH (6 h) of 22 pg, an MCHC (6 h) of 33.3% and an MCV (6 h) of 66.1 fL. The Mono (6 h) was 8.6%, the Neu (6 h) was 15.2% and the PT (6 h) was 12 s. It also gave a Plat (6 h) of 112.5 x10_4/uL, an RBC (6 h) of 591.4 x10_4/ul and a Ret (6 h) of 9.6%. It also gave a WBC (6 h) of 93 x10_2/uL, a KIDNEY_L (6 h) of 0.9 g and a KIDNEY_R (6 h) of 0.9 g. The KIDNEY_TOTAL (6 h) was 1.8 g, the LIVER (6 h) was 8.2 g and the A/G (6 h) was 1.9. The ALP (6 h) was 784.6 IU/L, the ALT (6 h) was 38.4 IU/L and the AST (6 h) was 67.2 IU/L. For the same compound, the BUN (6 h) was 12.2 mg/dL, the CRE (6 h) was 0.5 mg/dL and the Ca (6 h) was 10.6 mg/dL. For the same compound, the Cl (6 h) was 105.6 meq/L, the DBIL (6 h) was 0.03 mg/dL and the GLC (6 h) was 184.2 mg/dL. The IP (6 h) was 10.2 mg/dL, the K (6 h) was 4.8 meq/L and the LDH (6 h) was 106.8 IU/L. It also gave a Na (6 h) of 139.2 meq/L, a PL (6 h) of 133 mg/dL and an RALB (6 h) of 3.4 g/dL. For the same compound, the TBIL (6 h) was 0.6 mg/dL, the TC (6 h) was 74.4 mg/dL and the TG (6 h) was 32 mg/dL. The TP (6 h) was 5.2 g/dL, the gamma-GTP (6 h) was 1.4 IU/L and the TERMINAL_BW (9 h) was 182 g. It also gave an APTT (9 h) of 16.4 s, a Bas (9 h) of 0% and an Eos (9 h) of 1%. The Fbg (9 h) was 219.8 mg/dL, the Hb (9 h) was 13 g/dL and the Ht (9 h) was 39%. It also gave a Lym (9 h) of 74.8%, an MCH (9 h) of 21.9 pg and an MCHC (9 h) of 33.3%. For the same compound, the MCV (9 h) was 65.9 fL, the Mono (9 h) was 6.8% and the Neu (9 h) was 17.2%. The PT (9 h) was 12.1 s, the Plat (9 h) was 122.2 x10_4/uL and the RBC (9 h) was 592.8 x10_4/ul. It also gave a Ret (9 h) of 11%, a WBC (9 h) of 92.9 x10_2/uL and a KIDNEY_L (9 h) of 0.8 g. The KIDNEY_R (9 h) was 0.8 g, the KIDNEY_TOTAL (9 h) was 1.6 g and the LIVER (9 h) was 7.5 g. For the same compound, the A/G (9 h) was 2.1, the ALP (9 h) was 836.4 IU/L and the ALT (9 h) was 35 IU/L. The AST (9 h) was 60.6 IU/L, the BUN (9 h) was 12.6 mg/dL and the CRE (9 h) was 0.4 mg/dL. The Ca (9 h) was 10.4 mg/dL, the Cl (9 h) was 105.4 meq/L and the DBIL (9 h) was 0.034 mg/dL. For the same compound, the GLC (9 h) was 191.4 mg/dL, the IP (9 h) was 10 mg/dL and the K (9 h) was 5.1 meq/L. For the same compound, the LDH (9 h) was 92.2 IU/L, the Na (9 h) was 137.2 meq/L and the PL (9 h) was 126.8 mg/dL. For the same compound, the RALB (9 h) was 3.7 g/dL, the TBIL (9 h) was 0.5 mg/dL and the TC (9 h) was 70.4 mg/dL. The TG (9 h) was 32.4 mg/dL, the TP (9 h) was 5.4 g/dL and the gamma-GTP (9 h) was 1.8 IU/L. It also gave a TERMINAL_BW (24 h) of 201.5 g, an APTT (24 h) of 15.9 s and a Bas (24 h) of 0%. For the same compound, the Eos (24 h) was 0.8%, the Fbg (24 h) was 217.8 mg/dL and the Hb (24 h) was 13 g/dL. It also gave a Ht (24 h) of 38.9%, a Lym (24 h) of 75% and an MCH (24 h) of 22 pg. The MCHC (24 h) was 33.4%, the MCV (24 h) was 65.8 fL and the Mono (24 h) was 8.2%. It also gave a Neu (24 h) of 16.2%, a PT (24 h) of 11.7 s and a Plat (24 h) of 110.3 x10_4/uL. For the same compound, the RBC (24 h) was 591.6 x10_4/ul, the Ret (24 h) was 9.5% and the WBC (24 h) was 114.2 x10_2/uL. For the same compound, the KIDNEY_L (24 h) was 0.9 g, the KIDNEY_R (24 h) was 0.9 g and the KIDNEY_TOTAL (24 h) was 1.8 g. For the same compound, the LIVER (24 h) was 10.2 g, the A/G (24 h) was 1.7 and the ALP (24 h) was 852.4 IU/L. The ALT (24 h) was 44.4 IU/L, the AST (24 h) was 67.8 IU/L and the BUN (24 h) was 18.4 mg/dL. The CRE (24 h) was 0.5 mg/dL, the Ca (24 h) was 10.8 mg/dL and the Cl (24 h) was 103.8 meq/L. It also gave a DBIL (24 h) of 0.002 mg/dL, a GLC (24 h) of 193.8 mg/dL and an IP (24 h) of 9.1 mg/dL. The K (24 h) was 4.4 meq/L, the LDH (24 h) was 109.6 IU/L and the Na (24 h) was 138.8 meq/L. The PL (24 h) was 139 mg/dL, the RALB (24 h) was 3.5 g/dL and the TBIL (24 h) was 0.3 mg/dL. The TC (24 h) was 75.2 mg/dL, the TG (24 h) was 103.8 mg/dL and the TP (24 h) was 5.6 g/dL. The gamma-GTP (24 h) was 1.2 IU/L.

Reference: ChEMBL document CHEMBL3885861, “Open TG-GATES”
